Patent US20210338779A1, “THERAPEUTIC USE OF GLUCAGON AND COMBINATION INCLUDING THE SAME” (HANMI PHARM. CO., LTD, priority 2018, published 2021)

Tests used:
Assay type in all cases: in vivo, Mouse
[1] = test system: Mice with high-fat-diet-induced obesity; experiment: Experimental Example 1: body weight, fat, HOMA-IR and blood glucose in mice with high-fat-diet-induced obesity; conditions: 28 days; long-acting glucagon derivative 1.2 nmol/kg once every 2 days; SAXENDA 50 nmol/kg twice a day; Sitagliptin 49.2 mg/kg once a day
Experimental: (§1) Mice with high-fat-diet-induced obesity, which have been widely used as obesity animal models, were used for this experiment. The body weights of the mice were in the range of about 50 g to 55 g. During this experiment, mice were housed 7 mice per each group and were given ad libitum access to water. Lights were turned off between 6 P.M. and 6 A. M.
(§2) Test groups fed with high-fat diet include: Group 1: administered with an excipient not including long-acting glucagon (5 mL/kg, injection once every 2 days)-control (Vehicle), Group 2: administered with a GLP-1 analog obesity drug (SAXENDA®, 50 nmol/kg, injection twice a day), Group 3: administered with the long-acting glucagon derivative (1.2 nmol/kg, injection once every 2 days), and Group 4: administered with a DPP-4 inhibitor (Sitagliptin, 49.2 mg/kg, injection once a day).
(§3) The experiment was terminated on the 28th day, and changes in body weight of the mice in each group were measured at 2-day intervals during the progress of the experiment, and changes in blood glucose level were measured before administration and at the 1st, 4th, 7th, 10th, 13th, 16th, 19th, 22nd, 25th, and 28th days after administration. Upon termination of the experiment, the weight of fat and HOMA-IR were measured.
(§4) Statistical analysis was performed by comparing the excipient group (control) with the test groups by 1-way ANOVA.

[2] = test system: Mice with high-fat-diet-induced obesity; experiment: Experimental Example 2: co-administration of long-acting glucagon derivative and oral diabetes drug in mice with high-fat-diet-induced obesity; conditions: 28 days; long-acting glucagon derivative 1.2 nmol/kg once every 2 days; Sitagliptin 49.2 mg/kg, Empagliflozin 12.3 mg/kg once a day; SAXENDA 50 nmol/kg twice a day
Experimental: as §1
as §2, with “days),” for “days), and”, “day), Group 5: administered with an SGLT-2 inhibitor (Empagliflozin, 12.3 mg/kg, injection once a day), Group 6: co-administered with Sitagliptin (49.2 mg/kg, injection once a day) and the long-acting glucagon derivative (1.2 nmol/kg, injection once every 2 days), and Group 7: Empagliflozin (12.3 mg/kg, injection once a day) and the long-acting glucagon derivative (1.2 nmol/kg, injection once every 2 days). The long-acting glucagon derivative used in this experiment was the long-acting derivative according to Example 5.” for “day).”
as §3, §4

[3] = test system: Mice with high-fat-diet-induced obesity; experiment: Experimental Example 3: long-acting glucagon derivative and GLP-1 analogs, alone and co-administered, in mice with high-fat-diet-induced obesity; conditions: 28 days; glucagon long-acting derivative 2.0 nmol/kg once every 2 days; SAXENDA 50 nmol/kg twice a day; OZEMPIC 20.5 nmol/kg, TRULICITY 2.7 nmol/kg once every 2 days
Experimental: as §1, with “Light was” for “Lights were”, “A.M. […]” for “A. M.”
The experiment was terminated on the 28th day, and changes in body weight of the mice in each group were measured at 2-day intervals during the progress of the experiment. Upon termination of the experiment, blood lipid levels, weights of fat, and blood glucose levels were measured. […]

Compound | change in body weight compared to body weight before administration [1] | weight loss (change in body weight) [2] | weight loss compared to the body weight before administration [3]
SAXENDA®: GLP-1 analog obesity drug (HAEGTFTSDVSSYLEGQAAKEFIAWLVRGRG; chains of the INN, looked up) | −16.3% | −16.3% | −18.10%
TRULICITY®: long-acting GLP-1 analog |  |  | −3.81%
N[C@@H](CC(=O)N1CCn2c(nnc2C(F)(F)F)C1)Cc1cc(F)c(F)cc1F [Sitagliptin] | −0.1% | −0.1% | 
OC[C@H]1O[C@@H](c2ccc(Cl)c(Cc3ccc(O[C@H]4CCOC4)cc3)c2)[C@H](O)[C@@H](O)[C@@H]1O [Empagliflozin] |  | −10.4% | 
